The source of these data is patent publication US20150329558A1, “FUSED HETEROCYCLIC COMPOUNDS AS ION CHANNEL MODULATORS” (Gilead Sciences, Inc., priority 2011, published 2015).

Series [1] in a line: Microsomal stability assay, rat. The format is in vitro ADME. The settings on record: metabolic stability, rat liver microsomes 0.5 mg/mL, substrate 3 uM. Summed up: (§1)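 Liver microsomes at 0.5 mg/mL protein in 100 mM KPO4 buffer, incubated with 3 uM compound and NADPH-regenerating system, run in duplicate. Samples taken at 2, 12, 25, 45 and 65 min and quenched in MeOH/ACN/water before analysis.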
A general note: Microsomes from liver hold many membrane-bound enzymes, among them those of drug oxidation.

The nature of series [2]: Microsomal stability assay, dog. The format is in vitro ADME. The settings on record: metabolic stability, dog liver microsomes 0.5 mg/mL, substrate 3 uM. The essentials: as §1
Series [3] has as its target wild-type human cardiac sodium channel, hNav1.5 (late INa) (Homo sapiens, UniProt Q14524). The series can be described thus: Late INa screening assay (QPatch whole cell patch clamp). It counts as cell-based. The essentials:
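Compounds tested at 1 μM final in extracellular solution against tefluthrin (10 μM)-enhanced late current. Automated patch clamp (23-25° C) on HEK293 expressing alpha subunit alone: −120 mV holding, 250 ms depolarization to −20 mV every 10 s. Read-out is percent inhibition of mean current over 225–250 ms.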

A short description of series [4]: Microsomal stability assay, human. It counts as in vitro ADME. Particulars: metabolic stability, human liver microsomes 0.5 mg/mL, substrate 3 uM. The essentials:
as §1

A further series deals with hERG potassium channel (Homo sapiens, UniProt Q12809). Kind of series: hERG screening assay (PatchXpress, CHO cells). The format is cell-based. The settings on record: % inhibition at 1 μM. The method, then:
Compounds were also tested for their effect to block the hERG K^+ channel.
Compounds were screened to test their activity in blocking the hERG potassium channel at AVIVA Biosciences (San Deigo, Calif., USA). The hERG channel is heterologously expressed in a CHO (Chinese Hamster Ovary) cell line. Cells were maintained with standard tissue culture procedures and stable channel expression was maintained with 500 μg/mL G418 in the culture medium. Cells were harvested for testing on the PatchXpress 7000A automated patch clamp with Accumax (Innovative Cell Technologies, San Diego, Calif.) to isolate single cells.
The following solutions were used for electrophysiological recordings. The external solution contained: 2 mM CaCl2; 2 mM MgCl2; 4 mM KCl; 150 mM NaCl; 10 mM Glucose; 10 mM HEPES (pH 7.4 with 1M NaOH; osmolarity, ˜310 mOsm). The internal solution contained: 140 mM KCl, 10 mM MgCl2, 6 mM EGTA, 5 mM HEPES, 5 mM ATP (pH adjusted to 7.25 with KOH; osmolarity, ˜295 mOsm).
hERG channels were activated when the voltage was first stepped to −50 mV for 300 ms from the −80 mV holding potential and then stepped to +20 mV for 5 seconds. At +20 mV the channels open and then largely inactivate, so the currents are relatively small. Upon returning to −50 mV from +20 mV, hERG currents transiently become much larger as inactivation is rapidly removed and then the channel closes. The first step to −50 mV for 300 ms was used as a baseline for measuring the peak amplitude during the step to −50 mV after channel activation. The peak tail current at −50 mV was measured both under control conditions and after addition of compound, each cell serving as its own control.
All compounds were prepared as 10 mM DMSO stocks in glass vials. Stock solutions were mixed by vigorous vortexing and sonication for about 2 minutes at room temperature. For testing, compounds were diluted in glass vials using an intermediate dilution step in pure DMSO and then further diluted to working concentrations in external solution. Dilutions were prepared no longer than 20 minutes before use.
For the electrophysiological recordings, after achieving the whole-cell configuration, cells were monitored for 90 seconds to assess stability and washed with external solution for 66 seconds. The voltage protocol described above was then applied to the cells every 12 seconds and throughout the whole procedure. Only cells with stable recording parameters and meeting specified health criteria were allowed to enter the compound addition procedure.
External solution containing 0.1% DMSO (vehicle) was applied to the cells first to establish the control peak current amplitude. After allowing the current to stabilize for 3 to 5 minutes, 1 μM and then 10 μM test compounds were applied. Each compound concentration was added 4 times and cells were kept in test solution until the effect of the compound reached steady state or for a maximum of 12 minutes. After addition of test compound, a positive control (1 μM Cisapride) was added and must block >95% of the current for the experiment to be considered valid. Washout in the external solution compartment was performed until the recovery of the current reached steady state.

Series [5] has as its target wild-type human cardiac sodium channel, hNav1.5 (peak INa) (Homo sapiens, UniProt Q14524). The series can be described thus: Peak INa screening assay (tonic and use-dependent block). The format is cell-based. The essentials: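 Whole-cell automated patch clamp, HEK293 stably expressing hNav1.5 alpha without beta subunits, 23-25° C, holding −100 mV; bath Na⁺ reduced to 20 mM, CsF-based intracellular pH 7.4. Test compound 1 μM; tonic block at 0.1 Hz, use-dependent block at 3 Hz, % peak block after rundown correction.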

Where [6] appears, read: % inhibition at 1 μM, read-out: NAv1.5*-LATE-.
[7] abbreviates: percent block of late INa, compound at 1 μM, 10 μM Tefluthrin, HEK293 hNav1.5, read-out: Late INa 1 μM.
The mark [8] stands for this setting: % inhibition at 1 μM, tonic block, read-out: NAv1.5*-PEAK-TB-.
[9] abbreviates: % inhibition at 1 μM, use-dependent block 3 Hz, read-out: NAv1.5*-PEAK-UDB-3 HZ-.
[10] abbreviates: tonic block of peak INa, 0.1 Hz, 1 μM, read-out: Peak TB 1 μM.
Setting [11] is: use-dependent block of peak INa, 3 Hz, 1 μM, read-out: Peak UDB 1 μM.

Where two headings read alike, the source gives them in different places.

Sequence of hERG potassium channel (Q12809 whole entry): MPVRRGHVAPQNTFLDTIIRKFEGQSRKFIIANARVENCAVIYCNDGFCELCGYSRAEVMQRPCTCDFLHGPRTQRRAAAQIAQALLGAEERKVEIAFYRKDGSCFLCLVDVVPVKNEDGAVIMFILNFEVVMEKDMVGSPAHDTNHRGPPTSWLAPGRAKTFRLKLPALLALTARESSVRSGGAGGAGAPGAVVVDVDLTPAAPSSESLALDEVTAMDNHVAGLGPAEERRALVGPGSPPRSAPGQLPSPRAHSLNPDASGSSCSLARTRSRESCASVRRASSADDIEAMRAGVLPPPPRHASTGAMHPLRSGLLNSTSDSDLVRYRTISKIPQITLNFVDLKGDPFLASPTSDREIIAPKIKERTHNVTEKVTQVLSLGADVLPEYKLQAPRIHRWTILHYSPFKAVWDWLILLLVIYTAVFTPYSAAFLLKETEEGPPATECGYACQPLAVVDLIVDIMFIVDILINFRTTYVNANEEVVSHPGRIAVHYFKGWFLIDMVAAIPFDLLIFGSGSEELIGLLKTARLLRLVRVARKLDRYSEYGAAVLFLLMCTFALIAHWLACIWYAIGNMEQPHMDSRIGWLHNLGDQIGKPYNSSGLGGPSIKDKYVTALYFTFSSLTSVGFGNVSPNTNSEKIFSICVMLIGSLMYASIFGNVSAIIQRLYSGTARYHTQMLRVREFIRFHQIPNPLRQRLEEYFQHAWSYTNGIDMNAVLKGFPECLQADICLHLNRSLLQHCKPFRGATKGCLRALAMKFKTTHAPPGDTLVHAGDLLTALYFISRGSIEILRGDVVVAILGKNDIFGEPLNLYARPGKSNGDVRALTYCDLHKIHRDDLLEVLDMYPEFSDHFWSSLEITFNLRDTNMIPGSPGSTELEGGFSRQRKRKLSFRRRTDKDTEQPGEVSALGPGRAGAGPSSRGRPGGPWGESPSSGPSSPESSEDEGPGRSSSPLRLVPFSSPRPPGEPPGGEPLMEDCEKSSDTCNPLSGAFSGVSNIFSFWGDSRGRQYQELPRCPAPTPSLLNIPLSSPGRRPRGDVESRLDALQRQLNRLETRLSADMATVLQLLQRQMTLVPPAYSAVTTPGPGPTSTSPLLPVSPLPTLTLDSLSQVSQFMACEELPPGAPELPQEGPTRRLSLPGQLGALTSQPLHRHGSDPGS
Sequence of wild-type human cardiac sodium channel, hNav1.5 (peak INa) (Q14524 whole entry): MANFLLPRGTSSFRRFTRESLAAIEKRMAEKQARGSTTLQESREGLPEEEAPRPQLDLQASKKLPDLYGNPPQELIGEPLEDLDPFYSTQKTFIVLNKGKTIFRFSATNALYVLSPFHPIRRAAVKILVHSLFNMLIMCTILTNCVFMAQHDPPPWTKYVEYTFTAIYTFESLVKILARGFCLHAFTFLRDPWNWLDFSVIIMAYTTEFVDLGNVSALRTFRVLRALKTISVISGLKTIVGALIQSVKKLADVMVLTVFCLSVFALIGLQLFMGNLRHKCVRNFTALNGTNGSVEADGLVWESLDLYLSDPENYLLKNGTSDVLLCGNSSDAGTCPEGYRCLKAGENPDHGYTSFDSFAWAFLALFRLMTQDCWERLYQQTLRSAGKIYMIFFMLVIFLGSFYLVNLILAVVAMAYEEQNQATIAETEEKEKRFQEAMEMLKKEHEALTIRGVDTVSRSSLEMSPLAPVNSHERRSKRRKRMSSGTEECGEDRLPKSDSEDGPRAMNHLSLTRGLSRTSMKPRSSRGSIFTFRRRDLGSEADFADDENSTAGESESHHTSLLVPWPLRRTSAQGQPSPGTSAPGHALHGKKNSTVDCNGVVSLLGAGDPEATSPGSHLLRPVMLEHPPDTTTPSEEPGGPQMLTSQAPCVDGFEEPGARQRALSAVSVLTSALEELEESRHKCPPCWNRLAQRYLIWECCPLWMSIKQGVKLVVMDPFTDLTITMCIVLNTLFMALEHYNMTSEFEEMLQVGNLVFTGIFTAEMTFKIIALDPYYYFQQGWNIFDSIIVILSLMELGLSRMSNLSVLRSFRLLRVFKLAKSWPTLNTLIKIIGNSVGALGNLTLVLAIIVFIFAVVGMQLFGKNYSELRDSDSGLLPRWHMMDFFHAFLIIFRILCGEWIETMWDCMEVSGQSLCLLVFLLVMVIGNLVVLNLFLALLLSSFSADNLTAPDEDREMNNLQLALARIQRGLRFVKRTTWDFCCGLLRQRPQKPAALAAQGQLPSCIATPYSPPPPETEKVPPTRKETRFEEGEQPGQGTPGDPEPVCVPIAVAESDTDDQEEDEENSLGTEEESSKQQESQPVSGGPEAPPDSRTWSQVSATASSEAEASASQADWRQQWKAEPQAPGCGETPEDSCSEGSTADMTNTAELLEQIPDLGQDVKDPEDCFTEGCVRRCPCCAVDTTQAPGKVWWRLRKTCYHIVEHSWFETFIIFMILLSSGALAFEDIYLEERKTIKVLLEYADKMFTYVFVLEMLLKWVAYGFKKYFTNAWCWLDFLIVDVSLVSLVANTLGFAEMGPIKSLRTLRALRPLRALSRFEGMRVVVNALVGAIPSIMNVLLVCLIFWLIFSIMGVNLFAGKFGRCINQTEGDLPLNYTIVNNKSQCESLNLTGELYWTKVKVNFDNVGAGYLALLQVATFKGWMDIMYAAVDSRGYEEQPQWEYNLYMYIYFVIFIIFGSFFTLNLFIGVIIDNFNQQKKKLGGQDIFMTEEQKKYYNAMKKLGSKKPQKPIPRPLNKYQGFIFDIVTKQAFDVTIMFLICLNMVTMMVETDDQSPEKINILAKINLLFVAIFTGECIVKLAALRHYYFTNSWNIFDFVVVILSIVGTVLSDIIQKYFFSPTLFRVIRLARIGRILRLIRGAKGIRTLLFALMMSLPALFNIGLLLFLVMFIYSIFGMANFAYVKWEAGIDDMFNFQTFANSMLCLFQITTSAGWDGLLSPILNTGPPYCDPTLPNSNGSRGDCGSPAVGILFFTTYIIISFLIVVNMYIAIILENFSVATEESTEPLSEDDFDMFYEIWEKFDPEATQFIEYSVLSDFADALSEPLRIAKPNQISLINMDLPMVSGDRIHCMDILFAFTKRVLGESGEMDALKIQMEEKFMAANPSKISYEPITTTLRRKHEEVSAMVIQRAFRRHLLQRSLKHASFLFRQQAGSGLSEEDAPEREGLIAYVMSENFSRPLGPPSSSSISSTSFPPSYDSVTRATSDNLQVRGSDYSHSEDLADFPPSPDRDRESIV

As for `O=c1c2cc(-c3ccc(OC(F)(F)F)cc3)ccc2nnn1CCOc1nccc(-c2noc(C3CC3)n2)n1` [II-60, 3-(2-(4-(5-cyclopropyl-1,2,4-oxadiazol-3-yl)pyrimidin-2-yloxy)ethyl)-6-(4-(trifluoromethoxy)phenyl)benzo[d][1,2,3]triazin-4(3H)-one], the MS Rat THalf in series [1] is more than 395 min. The same molecule returned an MS Dog THalf in series [2] of 356 min. The inhibition at 1 µM in series [3] (setting [6]) and in series [3] (setting [7]) was 32% throughout. For the same molecule, in series [4], the MS Human THalf turned out to be 362 min. Also, the “HERG*” value at hERG potassium channel is given as 31%.

The molecule `O=c1c2cc(-c3ccc(OC(F)(F)F)cc3)ccc2nnn1Cc1nnc(C2CC2)s1` [II-66, 3-((5-cyclopropyl-1,3,4-thiadiazol-2-yl)methyl)-6-(4-(trifluoromethoxy)phenyl)benzo[d][1,2,3]triazin-4(3H)-one] yielded an MS Rat THalf in series [1] of 181 min. Moreover, in series [2], the MS Dog THalf is more than 395 min. For the same molecule, the inhibition at 1 µM in series [3] (setting [6]) and in series [3] (setting [7]) was 39% each time. Moreover, the MS Human THalf in series [4] was more than 395 min. Moreover, the “HERG*” value at hERG potassium channel is recorded as 23%.

With `O=c1c2cc(-c3ccc(OC(F)(F)F)cc3)ccc2cnn1Cc1ncc(Cl)cn1` [III-35, 2-((5-chloropyrimidin-2-yl)methyl)-7-(4-(trifluoromethoxy)phenyl)phthalazin-1 (2H)-one], the MS Rat THalf in series [1] came out at 296 min. In series [2], this molecule showed an MS Dog THalf of 85 min. Further, the inhibition at 1 µM in series [3] (setting [6]) and in series [3] (setting [7]) was 38% in each case. Also, the MS Human THalf in series [4] is more than 395 min. The “HERG*” value at hERG potassium channel is reported as 17%.

For `O=C(c1ncccc1F)N1CCc2ccc(-c3ccc(C(F)(F)F)cc3)cc2C1` [IX-25, (3-fluoropyridin-2-yl)(7-(4-(trifluoromethyl)phenyl)-3,4-dihydroisoquinolin-2(1H)-yl)methanone], the inhibition at 1 µM in series [5] (setting [8]) came to 28%; in series [5] (setting [9]), 32%; in series [5] (setting [10]), 28%; in series [5] (setting [11]) it was 33%; in series [3] (setting [6]) it was 57%; in series [3] (setting [7]), 57%. For the same molecule, the MS Rat THalf in series [1] stood at 170 min. Moreover, the MS Dog THalf in series [2] was 97 min. The MS Human THalf in series [4] amounted to 320 min.

Take `O=C(Cc1ccccn1)N1CCc2ccc(-c3ccc(C(F)(F)F)cc3)cc2C1` [IX-29, 2-(pyridin-2-yl)-1-(7-(4-(trifluoromethyl)phenyl)-3,4-dihydroisoquinolin-2(1H)-yl)ethanone]: the inhibition at 1 µM in series [5] (setting [8]) stood at 10%; in series [5] (setting [9]), 12%; in series [5] (setting [10]), 10%; in series [5] (setting [11]), 12%; in series [3] (setting [6]), 45%; in series [3] (setting [7]), 45%. The same molecule came in with an MS Rat THalf in series [1] of 48 min. Besides, in series [2], the MS Dog THalf is 138 min. Further, the MS Human THalf in series [4] amounted to 33 min.

With `O=C(c1ncc[nH]1)N1CCc2ccc(-c3ccc(C(F)(F)F)cc3)cc2C1` [IX-57, (1H-imidazol-2-yl)(7-(4-(trifluoromethyl)phenyl)-3,4-dihydroisoquinolin-2(1H)-yl)methanone], the inhibition at 1 µM amounted to 10% in series [5] (setting [8]); 6% in series [5] (setting [9]); 10% in series [5] (setting [10]); 6% in series [5] (setting [11]); 44% in series [3] (setting [6]); 44% in series [3] (setting [7]). Also, the MS Rat THalf in series [1] came to 132 min. The molecule also displayed an MS Dog THalf in series [2] of 245 min. The same molecule registered an MS Human THalf in series [4] of 159 min.

`C[C@@H]1CC[C@@H](C)N1C(=O)N1CCc2ccc(-c3ccc(C(F)(F)F)cc3)cc2C1` [IX-105]: the inhibition at 1 µM in series [5] (setting [8]) was 6%; in series [5] (setting [9]), 3%; in series [5] (setting [10]), 6%; in series [5] (setting [11]), 3%; in series [3] (setting [6]), 43%; in series [3] (setting [7]), 43%. The same molecule showed an MS Rat THalf in series [1] of 14 min. Besides, the MS Dog THalf in series [2] is 74 min. In addition, in series [4], the MS Human THalf came to 35 min.

Regarding `O=c1c2cc(C#Cc3ccc(OC(F)(F)F)cc3)ccc2nnn1CCOc1ncccn1` [VII-1, 3-(2-(pyrimidin-2-yloxy)ethyl)-6-((4-(trifluoromethoxy)phenyl)ethynyl)benzo[d][1,2,3]triazin-4(3H)-one], the figures for the inhibition at 1 µM in series [5] (setting [10]), in series [5] (setting [11]) and in series [3] (setting [7]) were 7%, 1% and 55%, respectively. The MS Rat THalf in series [1] is 44 min. The MS Dog THalf in series [2] turned out to be 114 min. In series [4], this molecule gave an MS Human THalf of more than 395 min.
